In PubChem BioAssay (NCI):
“And” between values parts separate entries of the source, which are not always exact repeats. Equal values may be shown once.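 Where inhibition never reached the appropriate level, the endpoint shown equals the highest concentration tested. Otherwise, values were interpolated linearly from a five-concentration, 48-hour dose response in 96-well plates. The concentration for 50% growth inhibition is given as GI50. Definition used: TGI = concentration required for complete inhibition of growth.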

Columns and labels:
Experiment in all cases: inhibition of tumour cell growth, NCI panel, 48 h
HL-60(TB) leukemia = system: HL-60(TB) leukemia
IGROV1 ovarian = system: IGROV1 ovarian
K-562 leukemia = system: K-562 leukemia
NCI-H226 lung = system: NCI-H226 lung
NCI-H23 lung = system: NCI-H23 lung
SK-MEL-5 melanoma = system: SK-MEL-5 melanoma
SK-OV-3 ovarian = system: SK-OV-3 ovarian
SN12C renal = system: SN12C renal
UO-31 renal = system: UO-31 renal
SR leukemia = system: SR leukemia

Row | SMILES | TGI (HL-60(TB) leukemia) [µM] | TGI (IGROV1 ovarian) | TGI (K-562 leukemia) [µM] | TGI (NCI-H226 lung) | TGI (NCI-H23 lung) [µM] | TGI (SK-MEL-5 melanoma) [µM] | TGI (SK-OV-3 ovarian) | TGI (SN12C renal) [µM] | TGI (UO-31 renal) | TGI (SR leukemia) | GI50 (HL-60(TB) leukemia) | GI50 (IGROV1 ovarian) [µM] | GI50 (K-562 leukemia) [µM] | GI50 (NCI-H226 lung) [µM] | GI50 (SK-MEL-5 melanoma) [µM] | GI50 (SK-OV-3 ovarian) [µM] | GI50 (SN12C renal) [µM] | GI50 (UO-31 renal) [µM] | GI50 (SR leukemia) | GI50 (NCI-H23 lung) [µM]
1 | NC1=NN(c2ccccc2)C(=O)C1/C(=N\NC(=O)c1cc2ccccc2cc1O)C(=O)Nc1ccc(Cl)cc1 (stereo not given) | 14.7 | 80.9 µM | > 100 | > 100 µM | 77.3 | 56.5 | > 100 µM | > 100 | 96.1 µM | – | – | – | – | – | – | – | – | – | – | –
2 | CCOC(=O)Oc1ccc2[nH]c3c(C)cc(N)c(C)c3c2c1 | > 100 | – | > 100 | > 100 µM | > 100 | > 100 | – | > 100 | > 100 µM | > 100 µM | – | – | – | – | – | – | – | – | – | –
3 | CC(C)=NO.CC(C)=NO.CC(C)=NO.CC(C)=NO.[Ti] | > 100 | > 100 µM | > 100 | > 100 µM | – | > 100 | > 100 µM | > 100 | > 100 µM | – | > 100 µM | > 100 | > 100 | > 100 | > 100 | > 100 | > 100 | > 100 | – | –
4 | Nc1ccc2ncc(Nc3ccc(Cl)c(Cl)c3)nc2c1 | 38.3 | – | > 100 | 62.6 µM | 47.9 | 36.1 | > 100 µM | > 100 | > 100 µM | > 100 µM | – | – | – | – | – | – | – | – | – | –
5 | Cn1nc(-c2ccccc2)c(C(=O)/C=C/c2ccccc2)c(N2CCCC2)c1=O | 22.7 | 55.7 µM | 40.9 | – | 29.9 | 35.7 | 85.9 µM | 77.6 | 38.7 µM | – | – | – | – | – | – | – | – | – | – | –
6 | COC(=O)C(NC(=O)c1ccccc1)c1ccc(OC)c(I)c1 (stereo not given) | > 100 | > 100 µM | > 100 | > 100 µM | – | > 100 | > 100 µM | > 100 | > 100 µM | > 100 µM | 41.6 µM | 53.2 | 35.6 | > 100 | 44.2 | 78.2 | > 100 | 76 | 35.2 µM | –
7 | CN1OC(CO)CC12C1CC3CC(C1)CC2C3 (stereo not given) | > 100 | > 100 µM | > 100 | – | > 100 | > 100 | > 100 µM | > 100 | > 100 µM | > 100 µM | – | – | – | – | – | – | – | – | – | –
8 | O=C(/C=C/N1CCN(c2cccc(Cl)c2)CC1)c1ccc(Cl)cc1 | – | – | > 100 | – | > 100 | 31.5 | > 100 µM | 65 | > 100 µM | 59.3 µM | – | – | 28 | – | 16.5 | 50.9 | 24.1 | 31.5 | 26.1 µM | 39
9 | COc1cccc(OC)c1/C=N\N1C(=O)c2ccccc2C1=O | 79.8 | > 100 µM | > 100 | > 100 µM | > 100 | > 100 | – | > 100 | > 100 µM | 74.5 µM | – | – | – | – | – | – | – | – | – | –
10 | Cc1cc2c(=O)cc(-c3ccncc3)oc2c(C(=O)O)c1C | > 100 | > 100 µM | – | > 100 µM | > 100 | – | > 100 µM | > 100 | > 100 µM | > 100 µM | – | – | – | – | – | – | – | – | – | –
11 | CC(=O)OCC1OC(OC(C)=O)C(NC#N)C(OC(C)=O)C1OC(C)=O (stereo not given) | > 100 | > 100 µM | > 100 | – | > 100 | > 100 | > 100 µM | > 100 | > 100 µM | > 100 µM | – | – | – | – | – | – | – | – | – | –
12 | CCNC(=O)O/N=C1/C=C2CC[C@@H]3C(CC[C@@]4(C)C3CC[C@@H]4OC(=O)NCC)[C@@]2(C)CC1 (stereo not given in full) | – | > 100 µM | 12.7 | – | 10.8 | > 100 | 7.8 µM | 14.6 | 3.46 µM | – | – | – | – | – | – | – | – | – | – | –
13 | O=c1cccccc1[O-].O=c1cccccc1[O-].O=c1cccccc1[O-].[Dy+3] | 54.3 | > 100 µM | > 100 | > 100 µM | 66.4 | 72.3 | 98.3 µM | > 100 | > 100 µM | – | – | – | – | – | – | – | 17.7 | – | – | –
14 | O=C1C(=O)c2c(ccc3ccccc23)-c2ccccc21 | 5.85 | – | – | 5.02 µM | 4.63 | 2.82 | 5.06 µM | 3.31 | > 100 µM | > 100 µM | 2.83 µM | – | – | 2.02 | 1.5 | 2.05 | 1.6 | 2.39 | 2.69 µM | 1.76
15 | O=[N+]([O-])C1(CO)COC(CCc2ccccc2)OC1 (stereo not given) | > 100 | > 100 µM | > 100 | – | > 100 | > 100 | > 100 µM | > 100 | > 100 µM | > 100 µM | – | – | – | – | – | – | – | – | – | –
16 | Cc1[nH]n(C(=O)c2ccc(Cl)cc2)c(=O)c1/C=C1\C(O)=CC(=O)c2ccccc21 | > 100 | > 100 µM | > 100 | – | > 100 | > 100 | > 100 µM | > 100 | > 100 µM | – | – | – | – | – | – | – | – | – | – | –
17 | CC1=C2[C@@H](c3ccccc3)C3C=CC2(C=C3C(F)(F)F)N(C(=O)NC2CCCCC2)C1=O (stereo not given in full) | 39.2 | > 100 µM | > 100 | – | > 100 | > 100 | > 100 µM | > 100 | > 100 µM | 66.8 µM | – | – | – | – | – | – | – | – | – | –
18 | O=[N+]([O-])c1cccc(C2=NOC3CCCC23)c1 (stereo not given) | > 100 | > 100 µM | > 100 | > 100 µM | > 100 | > 100 | > 100 µM | > 100 | > 100 µM | – | – | – | – | – | – | – | – | – | – | –
19 | Cc1cc(C2(c3cc(C)c(O)c4ncccc34)OC(=O)c3ccccc32)c2cccnc2c1O | – | 7.94 µM and 21.9 µM | > 100 | – | – | 0.0574 | 21.9 µM | 12.1 | – | – | – | – | – | – | – | – | – | – | – | 0.0145
20 | Cc1c2cc[n+](C)cc2c(C)c2c1[nH]c1ccc(Oc3ccccc3)cc12 | – | 33.5 µM and 24.5 µM | > 24 | 28 µM and 8.75 µM | – | – | > 73.5 µM and 21.4 µM | > 100 | 40 µM and > 38.1 µM | > 71.9 µM and 8.31 µM | 2.18 µM and 4.06 µM | – | – | 0.797 | – | – | – | – | 4.39 µM and 1.87 µM | 1.73
21 | COC(=O)c1ccccc1NCc1cc(O)ccc1O | > 42.8 | > 63.4 µM | > 59 | 65.3 µM | > 68.5 | 38.9 | > 100 µM | 36.9 | 31.9 µM | – | – | – | – | – | – | – | – | – | – | –
22 | CCCNc1ncnc2c1cnn2C | > 100 | > 100 µM | > 100 | > 100 µM | > 100 | > 100 | > 100 µM | > 100 | – | > 100 µM | – | – | – | – | – | – | – | – | – | –
